In data set [1] the test system is COS-7. Put plainly: Inhibition of autophagy in African green monkey COS-7 cells assessed as effect on LC3 level at upto 40 uM by flow cytometry analysis. The class given is functional, cell-based. As to conditions: Chlorocebus aethiops. For orientation: A flow cytometer gives signals particle by particle.
In data set [2] the test system is COS-7. The data set can be described thus: Inhibition of autophagy in African green monkey COS-7 cells assessed as effect on LC3 level by flow cytometry analysis. It counts as toxicity, cell-based. As to conditions: chlorocebus aethiops, cos-7, 40 µM.
The nature of data set [3]: Inhibition of ATG5-ATG16L1 (unknown origin) protein protein interaction expressed in Escherichia coli BL21 (DE3) by HTRF method. Further details: species or system Homo sapiens. In general terms: Time-resolved FRET reads energy transfer from a long-lived donor to a nearby acceptor.
Data set [4] concerns COS-7. Put plainly: Downregulation of LC3-II protein level in African green monkey COS-7 cells at 1.25 to 20 uM incubated for 6 hrs by Western blot analysis. It counts as functional, cell-based. As to conditions: Chlorocebus aethiops, dose 1.25-20 µM. For orientation: A western blot detects proteins with antibodies after separation by electrophoresis.
The test system of data set [5] is COS-7. The data set can be described thus: Inhibition of autophagy in African green monkey COS-7 cells at 20 uM by flow cytometry analysis relative to control. The class given is functional. As to conditions: Chlorocebus aethiops.
A further data set concerns THP-1. Put plainly: Downregulation of LC3-II protein level in human THP-1 cells at 5 to 40 uM incubated for 6 hrs in presence of rapamycin/chloroquine by Western blot analysis. As to conditions: dose 5-40 µM. It counts as functional, cell-based.
Another data set relates to U-937. The data set can be described thus: Downregulation of LC3-II protein level in human U-937 cells at 5 to 40 uM incubated for 6 hrs in presence of rapamycin/chloroquine by Western blot analysis. The class given is functional, cell-based. As to conditions: dose 5-40 µM.
The nature of data set [6]: Inhibition of ATG5-TECAIR (unknown origin) protein protein interaction expressed in Escherichia coli BL21 (DE3) by HTRF method. Further details: species or system Homo sapiens.

Active and inactive are the calls of the source. No cut-off for these calls is given here. A value given as a limit tells only on which side of the number the result lay.

For `CCN(CCO)CCCC(C)Nc1ccnc2cc(Cl)ccc12` (stereo not given), in the data set on COS-7 [1], the inhibition (in general, the relative decrease from the control value, in per cent) was “inactive”.
In the case of `O=C(O)c1ccc(N2C(=O)/C(=C/c3ccc(-c4ccc([N+](=O)[O-])cc4)o3)C=C2c2ccccc2)cc1`, in the data set on COS-7 [2], the “inhibition (INH)” value is “Dose-Dependent Effect”. Also, the half-maximal inhibitory concentration (IC50) (usually the midpoint of a concentration-inhibition curve) came out at 1.1 µM in data set [3] (read-out: IC50) and 1.7 µM in data set [6] (read-out: IC50). The outcome in the data set with COS-7 [4], in the data set on THP-1 and in the data set with U-937 was Active. This molecule also registered an inhibition at 20 µM in the data set with COS-7 [5] of 7.16%.
As for `Cn1cnc(N)c2ncnc1-2`, the inhibition result with COS-7 [1] was “inactive”.
For `O=C(O)CCCN1C(=O)/C(=C/c2ccc(-c3ccc([N+](=O)[O-])cc3)o2)C=C1c1ccccc1`, the figures for the IC50 entry in data set [3] and in data set [6] (read-out: IC50) were “Not Active” and 20.8 µM, respectively. The molecule further gave an inhibition at 20 µM in the data set on COS-7 [5] of 5.3%.
In the case of `O=C(O)c1ccc(N2C(=O)/C(=C/c3ccc(-c4ccc(Cl)cc4)o3)C=C2c2ccccc2)cc1`, the IC50 is greater than 33 µM in data set [3] (read-out: IC50) and 17 µM in data set [6] (read-out: IC50). In the data set on COS-7 [5], the inhibition at 20 µM came out at 98.2%.
On to `O=C(O)c1ccc(N2C(=O)/C(=C/c3ccc(-c4cncnc4)s3)C=C2c2ccccc2)cc1`, for which the half-maximal inhibitory concentration (IC50) in data set [3] (read-out: IC50) and in data set [6] (read-out: IC50) was greater than 11 µM each time. In the data set on COS-7 [5], the inhibition at 20 µM was determined as 95.6%.
In the case of `O=C(O)c1ccc(N2C(=O)/C(=C/c3ccc(-c4ccc5nonc5c4)o3)C=C2c2ccccc2)cc1`, the values for the IC50 in data set [3] (read-out: IC50) and in data set [6] (read-out: IC50) were 17 µM and 12 µM, respectively. This molecule also yielded an inhibition at 20 µM in the data set on COS-7 [5] of 94.7%.
On to `COC(=O)CCCN1C(=O)/C(=C/c2ccc(-c3ccc([N+](=O)[O-])cc3)o2)C=C1c1ccccc1`, for which the IC50 result in data set [3] and in data set [6] was “Not Active” in each case. For the same molecule, testing at 20 µM in the data set on COS-7 [5] gave an inhibition of 74.5%.
Consider `CC(=O)Nc1cccc(-c2ccc(/C=C3\C=C(c4ccccc4)N(Cc4ccc(C(=O)O)cc4)C3=O)o2)c1`, for which the IC50 entry in data set [3] and in data set [6] was “Not Active” throughout. In the data set with COS-7 [5], the inhibition at 20 µM came to 20%.
For the molecule `CC(=O)Nc1ccc(-c2ccc(/C=C3\C=C(c4ccccc4)N(Cc4ccc(C(=O)O)cc4)C3=O)o2)cc1`, the IC50 in data set [3] (read-out: IC50) is 12.8 µM; in data set [6] (read-out: IC50) it was 12 µM. In the data set on COS-7 [5], this molecule displayed an inhibition at 20 µM of 5.02%.

The values above are taken from ChEMBL document CHEMBL5380800, “Discovery of Small-Molecule Autophagy Inhibitors by Disrupting the Protein-Protein Interactions Involving Autophagy-Related 5” (J Med Chem, 2023).
